In US12599582B2, “Pyrrole compounds” (ALIGOS THERAPEUTICS, INC., priority 2019, dated 2026):

system: HBV; assay: HBV-DNA Antiviral Assay Using HepG2.2.15 Cells (extracellular HBV DNA by qPCR); assay type: cell-based, hepatitis B virus (HBV); settings: Hepatitis B virus; HBV DNA inhibition, HepG2.2.15 cells, extracellular HBV DNA by qPCR; read-out: EC50
Description: The following assay procedure describes the HBV antiviral assay. This assay uses HepG2.2.15 cells, which have been transfected with HBV genome, and extracellular HBV DNA quantification as endpoint. Cell viability is assessed in parallel by measuring the intracellular ATP content using the CellTiter-Glo® reagent from Promega.
On day 0, HepG2.2.15 cells were seeded in 96-well plates at a density of 6.0×10^4 cells/well (0.1 mL/well). The cells were incubated at 37° C. and 5% CO2.
On day 1, the test articles were diluted and added to cell culture wells (8 concentrations, 4-fold dilution, in duplicate). GLS4, Tenofovir and Sorafenib were used as reference compounds. 100 μL of culture medium containing the compounds was added to the plate, and the final total volume per well was 200 μL. The final concentration of DMSO in the culture medium was 0.5%. The plate map of compound treatment is shown below. The cells were cultured at 37° C. and 5% CO2 for 3 days.
On day 4, the plates were refreshed with culture media with compounds.
On day 7, cell viability was assessed using the CellTiter-Glo®, and the cell culture supernatants were collected for determination of HBV DNA by qPCR.
Extracellular DNA was isolated with QIAamp 96 DNA Blood Kit per the manufacturer's manual. HBV DNA was then quantified by qPCR with HBV specific primers and probes as specified in Table 1 using the FastStart Universal MasterMix from Roche on an ABI-7900HT. The PCR cycle program consisted of 95° C. for 10 min, followed by 40 cycles at 95° C. for 15 sec and 60° C. for 1 min.
A DNA standard was prepared by dilution of the pAAV2 HBV1.3 plasmid with concentrations ranging from 10 to 1×10^7 copies/uL and used to generate a standard curve by plotting Ct value vs. the concentration of the HBV plasmid DNA standard. The quantity of HBV DNA in each sample was determined by interpolating from the standard curve.
Cell viability was calculated as follows: % Cell viability=(luminescence value of test sample−average luminescence value of blank)/(average luminescence value of 0.5% DMSO control−average luminescence of blank)×100%. HBV DNA inhibition was calculated as follows: 100−(HBV DNA copy number of test sample−HBV DNA copy number of ETV)/HBV DNA copy number of 0.5% DMSO control−HBV DNA copy number of ETV)×100%. The CC50, EC50 and EC90 values were determined by dose-response curves fitted by GraphPad Prism using “log (agonist) vs. response—Variable slope”.

Row | Structure (SMILES) | EC50
1 | C#CCNC(=O)C(=O)c1cn(C)c(C(=O)Nc2ccc(F)c(C#N)c2)c1C [Compound 8, N-(3-cyano-4-fluoro-phenyl)-1,3-dimethyl-4-[2-oxo-2-(prop-2-ynylamino)acetyl]pyrrole-2-carboxamide] | 10 to 100 nM
2 | Cc1c(C(=O)C(=O)NC(C)(C)c2ccnn2C)c(C)n(C)c1C(=O)Nc1ccc(F)c(C(F)(F)F)c1 [Compound 138, N-[4-fluoro-3-(trifluoromethyl)phenyl]-1,3,5-trimethyl-4-[2-[[1-methyl-1-(2-methylpyrazol-3-yl)ethyl]amino]-2-oxo-acetyl]pyrrole-2-carboxamide] | 1 to 10 nM
3 | Cc1c(C(=O)C(=O)NC2(C#CC(F)(F)F)CC(O)C2)c(C)n(C)c1C(=O)Nc1ccc(F)c(C#N)c1 (stereo not shown) [Compound 62, N-(3-cyano-4-fluoro-phenyl)-4-[2-[[3-hydroxy-1-(3,3,3-trifluoroprop-1-ynyl)cyclobutyl]amino]-2-oxo-acetyl]-1,3,5-trimethyl-pyrrole-2-carboxamide] | 100 to 1000 nM
4 | C#C[C@@](C)(NC(=O)C(=O)c1c(C)c(C(=O)Nc2ccc(F)c(C#N)c2)n(C)c1C)C(F)(F)F [Compound 79a, N-(3-cyano-4-fluoro-phenyl)-1,3,5-trimethyl-4-[2-oxo-2-[[(1R)-1-methyl-1-(trifluoromethyl)prop-2-ynyl]amino]acetyl]pyrrole-2-carboxamide] | 1 to 10 nM
5 | C#C[C@](C)(CO)NC(=O)C(=O)c1c(C)c(C(=O)Nc2ccc(F)c(C#N)c2)n(C)c1C [Compound 64a, N-(3-cyano-4-fluoro-phenyl)-1,3,5-trimethyl-4-[2-oxo-2-[[(1R)-1-(hydroxymethyl)-1-methyl-prop-2-ynyl]amino]acetyl]pyrrole-2-carboxamide] | 1 to 10 nM
6 | Cc1c(C(=O)C(=O)NC(C)(C)c2ccc[nH]c2=O)c(C)n(C)c1C(=O)Nc1ccc(F)c(C#N)c1 [Compound 161, N-(3-cyano-4-fluoro-phenyl)-1,3,5-trimethyl-4-[2-[[1-methyl-1-(2-oxo-1H-pyridin-3-yl)ethyl]amino]-2-oxo-acetyl]pyrrole-2-carboxamide] | 1 to 10 nM
7 | C#CCNC(=O)C(=O)c1c(F)c(C(=O)Nc2ccc(F)c(C#N)c2)n(C)c1C [Compound 13, N-(3-cyano-4-fluoro-phenyl)-3-fluoro-1,5-dimethyl-4-[2-oxo-2-(prop-2-ynylamino)acetyl]pyrrole-2-carboxamide] | 1 to 10 nM
8 | C#CC1(NC(=O)C(=O)c2c(C)c(C(=O)Nc3ccnc(Br)c3F)n(C)c2C)CC(F)(F)C1 [Compound 84, N-(2-bromo-3-fluoro-4-pyridyl)-4-[2-[(1-ethynyl-3,3-difluoro-cyclobutyl)amino]-2-oxo-acetyl]-1,3,5-trimethyl-pyrrole-2-carboxamide] | 1 to 10 nM
9 | Cc1c(C(=O)C(=O)NC(C)(C)c2nnco2)c(C)n(C)c1C(=O)Nc1ccc(F)c(C#N)c1 [Compound 139, N-(3-cyano-4-fluoro-phenyl)-1,3,5-trimethyl-4-[2-[[1-methyl-1-(1,3,4-oxadiazol-2-yl)ethyl]amino]-2-oxo-acetyl]pyrrole-2-carboxamide] | 1 to 10 nM
10 | C=C[C@](C)(CO)NC(=O)C(=O)c1c(C)c(C(=O)Nc2ccc(F)c(C(F)(F)F)c2)n(C)c1C [Compound 69a, N-[4-fluoro-3-(trifluoromethyl)phenyl]-1,3,5-trimethyl-4-[2-oxo-2-[[(1R)-1-(hydroxymethyl)-1-methyl-allyl]amino]acetyl]pyrrole-2-carboxamide] | 1 to 10 nM
11 | Cc1c(C(=O)C(=O)NC2(c3cn[nH]c3)COC2)c(C)n(C)c1C(=O)Nc1ccc(F)c(C#N)c1 [Compound 151, N-(3-cyano-4-fluoro-phenyl)-1,3,5-trimethyl-4-[2-oxo-2-[[3-(1H-pyrazol-4-yl)oxetan-3-yl]amino]acetyl]pyrrole-2-carboxamide] | 1 to 10 nM
12 | C=C[C@](CO)(NC(=O)C(=O)c1c(C)c(C(=O)Nc2ccc(F)c(C(F)(F)F)c2)n(C)c1C)C(F)(F)F [Compound 80a, N-[4-fluoro-3-(trifluoromethyl)phenyl]-1,3,5-trimethyl-4-[2-oxo-2-[[(1R)-1-(hydroxymethyl)-1-(trifluoromethyl)allyl]amino]acetyl]pyrrole-2-carboxamide] | 1 to 10 nM
13 | C#CC1(NC(=O)C(=O)c2c(C)c(C(=O)Nc3ccnc(F)c3Br)n(C)c2C)COC1 [Compound 67, N-(3-bromo-2-fluoro-4-pyridyl)-4-[2-[(3-ethynyloxetan-3-yl)amino]-2-oxo-acetyl]-1,3,5-trimethyl-pyrrole-2-carboxamide] | 10 to 100 nM
14 | Cc1c(C(=O)C(=O)NC2(c3c[nH]cn3)COC2)c(C)n(C)c1C(=O)Nc1ccc(F)c(C(F)(F)F)c1 [Compound 156, N-[4-fluoro-3-(trifluoromethyl)phenyl]-4-[2-[[3-(1H-imidazol-4-yl)oxetan-3-yl]amino]-2-oxo-acetyl]-1,3,5-trimethyl-pyrrole-2-carboxamide] | < 1 nM
15 | Cc1c(C(=O)C(=O)NC(C)(C)c2ccc[nH]c2=O)c(C)n(C)c1C(=O)Nc1ccc(F)c(C(F)(F)F)c1 [Compound 159, N-[4-fluoro-3-(trifluoromethyl)phenyl]-1,3,5-trimethyl-4-[2-[[1-methyl-1-(2-oxo-1H-pyridin-3-yl)ethyl]amino]-2-oxo-acetyl]pyrrole-2-carboxamide] | 1 to 10 nM
16 | Cc1c(C(=O)C(=O)NC(C)(C)c2cnn(C)c2)c(C)n(C)c1C(=O)Nc1ccc(F)c(C#N)c1 [Compound 70, N-(3-cyano-4-fluoro-phenyl)-1,3,5-trimethyl-4-[2-[[1-methyl-1-(1-methylpyrazol-4-yl)ethyl]amino]-2-oxo-acetyl]pyrrole-2-carboxamide] | 1 to 10 nM
17 | C#CC1(NC(=O)C(=O)c2c(C)c(C(=O)Nc3ccnc(F)c3Br)n(C)c2C)CC(F)(F)C1 [Compound 68, N-(3-bromo-2-fluoro-4-pyridyl)-4-[2-[(1-ethynyl-3,3-difluoro-cyclobutyl)amino]-2-oxo-acetyl]-1,3,5-trimethyl-pyrrole-2-carboxamide] | < 1 nM
18 | CC#CC1(NC(=O)C(=O)c2c(C)c(C(=O)Nc3ccc(F)c(C#N)c3)n(C)c2C)COC1 [Compound 50, N-(3-cyano-4-fluoro-phenyl)-1,3,5-trimethyl-4-[2-oxo-2-[(3-prop-1-ynyloxetan-3-yl)amino]acetyl]pyrrole-2-carboxamide] | < 1 nM
19 | C=CC1(NC(=O)C(=O)c2c(C)c(C(=O)Nc3ccc(F)c(C#N)c3)n(C)c2C)CC(F)(F)C1 [Compound 53, N-(3-cyano-4-fluoro-phenyl)-4-[2-[(3,3-difluoro-1-vinyl-cyclobutyl)amino]-2-oxo-acetyl]-1,3,5-trimethyl-pyrrole-2-carboxamide] | 1 to 10 nM
20 | C#C[C@H](NC(=O)C(=O)c1c(C)c(C(=O)Nc2ccc(F)c(C#N)c2)n(C)c1C)C(C)(C)C [Compound 30a, N-(3-cyano-4-fluoro-phenyl)-1,3,5-trimethyl-4-[2-oxo-2-[[(1R)-1-tert-butylprop-2-ynyl]amino]acetyl]pyrrole-2-carboxamide] | < 1 nM
21 | C#C[C@@H](NC(=O)C(=O)c1c(C)c(C(=O)Nc2ccc(F)c(C#N)c2)n(C)c1C)C1CC1 [Compound 23b, N-(3-cyano-4-fluoro-phenyl)-1,3,5-trimethyl-4-[2-oxo-2-[[(1S)-1-cyclopropylprop-2-ynyl]amino]acetyl]pyrrole-2-carboxamide] | < 1 nM
22 | C#CC1(NC(=O)C(=O)c2c(C)c(C(=O)Nc3ccnc(Br)c3F)n(C)c2C)COC1 [Compound 83, N-(2-bromo-3-fluoro-4-pyridyl)-4-[2-[(3-ethynyloxetan-3-yl)amino]-2-oxo-acetyl]-1,3,5-trimethyl-pyrrole-2-carboxamide] | 1 to 10 nM
23 | C#C[C@H](NC(=O)C(=O)c1c(C)c(C(=O)Nc2ccc(F)c(C#N)c2)n(C)c1C)C1CC1 [Compound 23a, N-(3-cyano-4-fluoro-phenyl)-1,3,5-trimethyl-4-[2-oxo-2-[[(1R)-1-cyclopropylprop-2-ynyl]amino]acetyl]pyrrole-2-carboxamide] | < 1 nM
24 | C#CC1(NC(=O)C(=O)c2c(C)c(C(=O)Nc3ccc(F)c(C(F)F)c3)n(C)c2C)CC(F)(F)C1 [Compound 82, N-[3-(difluoromethyl)-4-fluoro-phenyl]-4-[2-[(1-ethynyl-3,3-difluoro-cyclobutyl)amino]-2-oxo-acetyl]-1,3,5-trimethyl-pyrrole-2-carboxamide] | 1 to 10 nM
25 | C#CC1(NC(=O)C(=O)c2c(C)c(C(=O)Nc3ccc(F)c(C(F)(F)F)c3)n(C)c2C)CC(O)C1 (stereo not shown) [Compound 49, 4-[2-[(1-ethynyl-3-hydroxy-cyclobutyl)amino]-2-oxo-acetyl]-N-[4-fluoro-3-(trifluoromethyl)phenyl]-1,3,5-trimethyl-pyrrole-2-carboxamide] | < 1 nM
